One block for each compound: values may come before it. Calls of active or inactive are those of the source. The calls are words filed in the database; no cut-off is given here.
What was measured:
PC-12 [1] = experiment: Neuritogenic activity in rat PC12 cells assessed as induction of neural differentiation at 5 to 10 uM incubated for 96 hrs by microscopic analysis; assay type: functional, cell-based; conditions: dose 5-10 µM
PC-12 [2] = experiment: Neuritogenic activity in rat PC12 cells assessed as induction of neural differentiation incubated for 96 hrs by microscopic analysis; assay type: functional, cell-based; conditions: dose > 5.0 µM
PC-12 [3] = experiment: Induction of neural differentiation in rat PC12 cells assessed as increase in Tuj-1 expression at 10 uM incubated for 96 hrs by immunofluorescence staining based assay; assay type: functional, cell-based
[4] = Fluorescent property of compound in toluene assessed as wavelength of excitation; assay type: physicochemical
[5] = Fluorescent property of compound in chloroform as wavelength of excitation; assay type: physicochemical
[6] = Fluorescent property of compound in acetonitrile assessed as wavelength of excitation; assay type: physicochemical
[7] = Fluorescent property of compound in DMSO assessed as wavelength of excitation; assay type: physicochemical
[8] = Fluorescent property of compound in methanol assessed as wavelength of excitation; assay type: physicochemical
[9] = Fluorescent property of compound in toluene assessed as wavelength of emission; assay type: physicochemical
[10] = Fluorescent property of compound in chloroform assessed as wavelength of emission; assay type: physicochemical
[11] = Fluorescent property of compound in acetonitrile assessed as wavelength of emission; assay type: physicochemical
[12] = Fluorescent property of compound in DMSO assessed as wavelength of emission; assay type: physicochemical
[13] = Fluorescent property of compound in methanol assessed as wavelength of emission; assay type: physicochemical
PC-12 [14] = experiment: Neuritogenic activity in NGF-insensitive rat PC12 cells assessed as fold increase in induction of neural differentiation at 20 uM incubated for 96 hrs by microscopic analysis relative to control; assay type: functional
[15] = Drug uptake in cytoplasm of rat PC12 cells incubated for 24 hrs by fluorescence staining based microscopy; assay type: ADME, subcellular; conditions: pc12, 24 h
[16] = Drug uptake in rat PC12 cells at 20 uM incubated upto 2 hrs by HPLC analysis; assay type: ADME, cell-based; conditions: pc-12, 2 h
[17] = Drug uptake in rat PC12 cells by HPLC analysis; assay type: ADME, cell-based; conditions: pc-12
[18] = Drug metabolism in rat PC12 cells assessed as formation of 3-amino-5,6,7,8-tetrahydrothieno[2,3-b]quinoline-2-carbonitrile metabolite by HPLC analysis; assay type: ADME, cell-based; conditions: pc-12
[19] = Drug uptake in rat PC12 cells by fluorescence based assay; assay type: ADME, cell-based; conditions: pc-12
[20] = Drug metabolism in rat PC12 cells assessed as formation of 3-amino-5,6,7,8-tetrahydrothieno[2,3-b]quinoline-2-carbonitrile metabolite by fluorescence based assay; assay type: ADME, cell-based; conditions: pc-12

SMILES: N#Cc1sc2nc(N3CCOCC3)c3c(c2c1N)CCCC3
Activity (PC-12 [1]): inactive

SMILES: CC(=O)Nc1c(C#N)sc2nc3c(cc12)CCCC3
Activity (PC-12 [1]): inactive

SMILES: N#Cc1sc2nc(N3CCCCC3)c3c(c2c1N)CCCC3
Activity (PC-12 [1]): inactive

SMILES: N#Cc1sc2nc3c(cc2c1N)CCC3
Activity (PC-12 [1]): Active

SMILES: N#Cc1sc2ncccc2c1N
Activity (PC-12 [1]): inactive

Activity [4]: 343 nm
Activity [5]: 343 nm
Activity [6]: 345 nm
Activity [7]: 359 nm
Activity [8]: 356 nm
Activity [9]: 434 nm
Activity [10]: 453 nm
Activity [11]: 460 nm
Activity [12]: 478 nm
Activity [13]: 485 nm
Drug uptake [15]: Active
Drug uptake [16]: Active
SMILES: N#Cc1sc2nc3c(cc2c1N)CCCC3
Activity (PC-12 [1]): Active
Activity (PC-12 [2]): Dose-Dependent Effect
Activity (PC-12 [3]): Active
fold change (FC) (PC-12 [14]): 20

Drug uptake [17]: Active
Drug metabolism [18]: Metabolite_Detected
Drug uptake [19]: Active
Drug metabolism [20]: Metabolite_Detected
SMILES: N#Cc1sc2nc3c(cc2c1NC=O)CCCC3
Activity (PC-12 [1]): Active
Activity (PC-12 [2]): Dose-Dependent Effect
Activity (PC-12 [3]): Active

SMILES: CCOC(=O)c1sc2nc3c(cc2c1N)CCCC3
Activity (PC-12 [1]): inactive

SMILES: N#Cc1sc2ncc3c(c2c1N)CCCC3
Activity (PC-12 [1]): Active

SMILES: NC(=O)c1sc2nc3c(cc2c1N)CCCC3
Activity (PC-12 [1]): inactive

SMILES: CC(=O)c1sc2nc3c(cc2c1N)CCCC3
Activity (PC-12 [1]): inactive

— ChEMBL document CHEMBL5335816, “3-Amino-5,6,7,8-tetrahydrothieno[2,3-b]quinoline-2-carbonitrile: A fluorescent molecule that induces differentiation in PC12 cells” (Bioorg Med Chem, 2024)
